Assay in all cases: Post-emergence efficacy, Method A
Holding throughout (format): in vivo
What all share (conditions): evaluated after 13 days

The subject of test [1] is Chenopodium album (CHEAL). The method, boiled down:
(§1)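 Visual damage score, 0 (no damage) to 100 (total), taken 13 d after spraying. Pot-grown plants at 14 d post-sowing received an aqueous spray from a 50 g/l acetone/IF50 solution diluted in 0.25% or 1% Empicol ESC70 + 1% ammonium sulphate; glasshouse 24/16 °C, 14 h light, 65% RH, watered twice daily.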

A further test relates to Setaria faberi (SETFA). The method, boiled down:
as §1

Test [2] deals with Echinochloa crus-galli (ECHCG). Summed up:
as §1

The test system of test [3] is Amaranthus palmeri (AMAPA). The method, boiled down:
as §1

In another test the test system is Lolium perenne (LOLPE). The method, boiled down: as §1
Test [4] concerns Ipomoea hederacea (IPOHE). The method, boiled down:
as §1

The next test relates to Eleusine indica (ELEIN). The method, boiled down: as §1
For test [5], the system named is Euphorbia heterophylla (EPHHL). The method, boiled down: as §1
In test [6] the test system is Digitaria sanguinalis (DIGSA). The method, boiled down: as §1
[7] abbreviates: Chenopodium album, post-emergence, 312 h, Application rate 500 g/Ha, 100=total damage to plant, 0=no damage to plant, read-out: Control of weed species after post-emergence application, CHEAL.
The mark [8] stands for this setting: Setaria faberi, post-emergence, 312 h, Application rate 500 g/Ha, 100=total damage to plant, 0=no damage to plant, read-out: Control of weed species after post-emergence application, SETFA.
[9] abbreviates: Echinochloa crus-galli, post-emergence, 312 h, Application rate 500 g/Ha, 100=total damage to plant, 0=no damage to plant, read-out: Control of weed species after post-emergence application, ECHCG.
Where [10] appears, read: Amaranthus palmeri, post-emergence, 312 h, Application rate 500 g/Ha, 100=total damage to plant, 0=no damage to plant, read-out: Control of weed species after post-emergence application, AMAPA.
[11] abbreviates: Lolium perenne, post-emergence, 312 h, Application rate 500 g/Ha, 100=total damage to plant, 0=no damage to plant, read-out: Control of weed species after post-emergence application, LOLPE.
Where [12] appears, read: Ipomoea hederacea, post-emergence, 312 h, Application rate 500 g/Ha, 100=total damage to plant, 0=no damage to plant, read-out: Control of weed species after post-emergence application, IPOHE.
The mark [13] stands for this setting: Eleusine indica, post-emergence, 312 h, Application rate 500 g/Ha, 100=total damage to plant, 0=no damage to plant, read-out: Control of weed species after post-emergence application, ELEIN.
Where [14] appears, read: Euphorbia heterophylla, post-emergence, 312 h, Application rate 500 g/Ha, 100=total damage to plant, 0=no damage to plant, read-out: Control of weed species after post-emergence application, EPHHL.
Setting [15] is: Digitaria sanguinalis, post-emergence, 312 h, Application rate 500 g/Ha, 100=total damage to plant, 0=no damage to plant, read-out: Control of weed species after post-emergence application, DIGSA.
The mark [16] stands for this setting: Chenopodium album, post-emergence, 312 h, Application Rate 500 g/Ha, Method A, read-out: Control of weed species after post-emergence application, CHEAL (100=total damage to plant; 0=no damage to plant).
Setting [17] is: Setaria faberi, post-emergence, 312 h, Application Rate 500 g/Ha, Method A, read-out: Control of weed species after post-emergence application, SETFA (100=total damage to plant; 0=no damage to plant).
The mark [18] stands for this setting: Echinochloa crus-galli, post-emergence, 312 h, Application Rate 500 g/Ha, Method A, read-out: Control of weed species after post-emergence application, ECHCG (100=total damage to plant; 0=no damage to plant).
Setting [19] is: Amaranthus palmeri, post-emergence, 312 h, Application Rate 500 g/Ha, Method A, read-out: Control of weed species after post-emergence application, AMAPA (100=total damage to plant; 0=no damage to plant).
Setting [20] is: Lolium perenne, post-emergence, 312 h, Application Rate 500 g/Ha, Method A, read-out: Control of weed species after post-emergence application, LOLPE (100=total damage to plant; 0=no damage to plant).
Where [21] appears, read: Ipomoea hederacea, post-emergence, 312 h, Application Rate 500 g/Ha, Method A, read-out: Control of weed species after post-emergence application, IPOHE (100=total damage to plant; 0=no damage to plant).
The mark [22] stands for this setting: Eleusine indica, post-emergence, 312 h, Application Rate 500 g/Ha, Method A, read-out: Control of weed species after post-emergence application, ELEIN (100=total damage to plant; 0=no damage to plant).
Setting [23] is: Euphorbia heterophylla, post-emergence, 312 h, Application Rate 500 g/Ha, Method A, read-out: Control of weed species after post-emergence application, EPHHL (100=total damage to plant; 0=no damage to plant).
[24] abbreviates: Digitaria sanguinalis, post-emergence, 312 h, Application Rate 500 g/Ha, Method A, read-out: Control of weed species after post-emergence application, DIGSA (100=total damage to plant; 0=no damage to plant).
[25] abbreviates: Application rate 500 g/Ha, 100=total damage to plant, 0=no damage to plant.

Read-outs that look alike come from different tables or passages of the source.

With `O=C(O)CC[n+]1ccc(-c2ccnc(C(F)(F)F)n2)cn1` [Compound A118], the pest or weed control at 500 g/ha amounted to 80% in [1] (setting [7]); 70% with Setaria faberi (SETFA) (setting [8]); 40% in test [2] (setting [9]); 80% in test [3] (setting [10]); 90% with Lolium perenne (LOLPE) (setting [11]); 60% in test [4] (setting [12]). The results for the pest or weed control at 500 g/ha (in the test on Eleusine indica (ELEIN) (setting [13]); in test [5] (setting [14]); in test [6] (setting [15])) were 70%, 90% and 90%, respectively.
As for `O=S(=O)(O)CCC[n+]1ccc(-c2cnccn2)cn1` [Compound A10], the pest or weed control at 500 g/ha came to 100% in test [1] (setting [7]); 60% in the test on Setaria faberi (SETFA) (setting [8]); 30% in test [2] (setting [9]); 100% in test [3] (setting [10]); 90% with Lolium perenne (LOLPE) (setting [11]); 40% in test [4] (setting [12]). The pest or weed control at 500 g/ha with Eleusine indica (ELEIN) (setting [13]) was 50%; in test [5] (setting [14]), 100%; in [6] (setting [15]) it was 60%.
In the case of `CC(C)(C[n+]1ccc(-c2ccncn2)cn1)C(=O)O` [Compound A167], the pest or weed control at 500 g/ha amounted to 70% in [1] (setting [16]); 40% with Setaria faberi (SETFA) (setting [17]); 60% in test [2] (setting [18]); 20% in [3] (setting [19]); 40% in the test on Lolium perenne (LOLPE) (setting [20]); 100% in test [4] (setting [21]). Also, the results for the pest or weed control at 500 g/ha (in the test with Eleusine indica (ELEIN) (setting [22]); in [5] (setting [23]); in test [6] (setting [24])) were 80%, 90% and 50%, respectively.
With `O=C([O-])CC[n+]1ccc(-c2nccc(C(F)(F)F)n2)cn1` [Compound A39], the pest or weed control at 500 g/ha is 90% in test [1] (setting [7]); 40% in the test on Setaria faberi (SETFA) (setting [8]); 30% in [2] (setting [9]); 100% in test [3] (setting [10]); 60% in the test on Lolium perenne (LOLPE) (setting [11]); 0% in test [4] (setting [12]). The pest or weed control at 500 g/ha in the test with Eleusine indica (ELEIN) (setting [13]) worked out at 80%; in test [5] (setting [14]), 90%; in test [6] (setting [15]), 70%.
For the compound `N#Cc1ccnc(-c2cc[n+](CCO)nc2)n1` [Compound A186], the pest or weed control at 500 g/ha in test [1] (setting [16]) amounted to 70%; with Setaria faberi (SETFA) (setting [17]), 60%; in test [2] (setting [18]) it was 30%; in test [3] (setting [19]) it was 70%; with Lolium perenne (LOLPE) (setting [20]), 10%; in test [4] (setting [21]), 30%. Moreover, the values for the pest or weed control at 500 g/ha (in the test with Eleusine indica (ELEIN) (setting [22]); in [5] (setting [23]); in test [6] (setting [24])) were 50%, 30% and 60%, respectively.
Take `O=S(=O)([O-])CCC[n+]1ccc(-c2nccc(CO)n2)cn1` [Compound A154]: the pest or weed control at 125 g/ha came to 50% in test [1] (Chenopodium album, post-emergence, 312 h, Application Rate 125 g/Ha, Method A, read-out: Control of weed species after post-emergence application, CHEAL (100=total damage to plant; 0=no damage to plant)); 30% with Setaria faberi (SETFA) (Setaria faberi, post-emergence, 312 h, Application Rate 125 g/Ha, Method A, read-out: Control of weed species after post-emergence application, SETFA (100=total damage to plant; 0=no damage to plant)); 20% in [2] (Echinochloa crus-galli, post-emergence, 312 h, Application Rate 125 g/Ha, Method A, read-out: Control of weed species after post-emergence application, ECHCG (100=total damage to plant; 0=no damage to plant)); 40% in [3] (Amaranthus palmeri, post-emergence, 312 h, Application Rate 125 g/Ha, Method A, read-out: Control of weed species after post-emergence application, AMAPA (100=total damage to plant; 0=no damage to plant)); 10% in the test on Lolium perenne (LOLPE) (Lolium perenne, post-emergence, 312 h, Application Rate 125 g/Ha, Method A, read-out: Control of weed species after post-emergence application, LOLPE (100=total damage to plant; 0=no damage to plant)); 20% in test [4] (Ipomoea hederacea, post-emergence, 312 h, Application Rate 125 g/Ha, Method A, read-out: Control of weed species after post-emergence application, IPOHE (100=total damage to plant; 0=no damage to plant)). Further, the pest or weed control at 125 g/ha in the test on Eleusine indica (ELEIN) (Eleusine indica, post-emergence, 312 h, Application Rate 125 g/Ha, Method A, read-out: Control of weed species after post-emergence application, ELEIN (100=total damage to plant; 0=no damage to plant)) worked out at 10%; in test [5] (Euphorbia heterophylla, post-emergence, 312 h, Application Rate 125 g/Ha, Method A, read-out: Control of weed species after post-emergence application, EPHHL (100=total damage to plant; 0=no damage to plant)), 70%; in test [6] (Digitaria sanguinalis, post-emergence, 312 h, Application Rate 125 g/Ha, Method A, read-out: Control of weed species after post-emergence application, DIGSA (100=total damage to plant; 0=no damage to plant)), 20%.
In the case of `Cc1cc(F)cnc1-c1cc[n+](CCS(=O)(=O)[O-])nc1` [Compound A104], the pest or weed control at 500 g/ha is 0% in [1] (setting [7]); 30% with Setaria faberi (SETFA) (setting [8]); 30% in [2] (setting [9]); 10% in test [3] (setting [10]); 10% in the test on Lolium perenne (LOLPE) (setting [11]); 30% in test [4] (setting [12]). Further, the pest or weed control at 500 g/ha in the test with Eleusine indica (ELEIN) (setting [13]) stood at 50%; in test [5] (setting [14]), 20%; in test [6] (setting [15]), 30%.
For `O=S(=O)([O-])CC[n+]1ccc(-c2ccccn2)cn1` [Compound A64], the pest or weed control at 500 g/ha in test [1] (setting [7]) amounted to 90%; in the test with Setaria faberi (SETFA) (setting [8]) it was 90%; in [2] (setting [9]) it was 60%; in test [3] (setting [10]), 90%; in the test on Lolium perenne (LOLPE) (setting [11]), 80%; in test [4] (setting [12]) it was 20%. Further, the pest or weed control at 500 g/ha was 100% with Eleusine indica (ELEIN) (setting [13]), 100% in [5] (setting [14]) and 80% in test [6] (setting [15]).
On to `Cc1n[n+](CCC(=O)O)ccc1-c1ncccn1.[Cl-]` [Compound A133], for which, in test [1] (setting [25]), the “Control of weed species after post-emergence application, CHEAL” value turned out to be 40. Further, in the test on Setaria faberi (SETFA) (setting [25]), the “Control of weed species after post-emergence application, SETFA” value is reported as 90. Besides, the “Control of weed species after post-emergence application, ECHCG” value in test [2] (setting [25]) was found to be 70. Also, the “Control of weed species after post-emergence application, AMAPA” value in test [3] (setting [25]) is 60. In addition, the “Control of weed species after post-emergence application, LOLPE” value in the test on Lolium perenne (LOLPE) (setting [25]) is reported as 40. In test [4] (setting [25]), the “Control of weed species after post-emergence application, IPOHE” value was determined as 20. In addition, in the test with Eleusine indica (ELEIN) (setting [25]), the “Control of weed species after post-emergence application, ELEIN” value amounted to 90. Also, in [5] (setting [25]), the “Control of weed species after post-emergence application, EPHHL” value was 20. The “Control of weed species after post-emergence application, DIGSA” value in test [6] (setting [25]) came out at 70.
